pEC50, pIC50, pKd: −log10 of the molar value.
Assays:
U2OS osteosarcoma cells [1] = test: Induction of vacuoles (enlarged lysosomes); type: cell-based; details: within 4 hours
Experimental: (§1) The WX8-family of PIKfyve specific inhibitors disrupts multiple events in lysosome homeostasis (Table 1): • prevent lysosome fission without preventing homotypic lysosome fusion, thereby causing cytoplasmic vacuolization (enlarged lysosomes). Cytoplasmic vacuolization is evident within 30 minutes and reversible for up to 24-48 hours (1Vacuoles). • inhibit trafficking of molecules into lysosomes, thereby reducing lysosomal activity • inhibit maturation of lysosome cathepsins, thereby reducing lysosomal activity • disrupt endosome trafficking, thereby reducing cellular uptake of extracellular materials • inhibit cell proliferation (^3Proliferation) • disrupt autophagy by preventing heterotypic fusion of lysosomes with autophagosomes (^2LC3-II), thereby inducing cell death in autophagy-dependent cancer cells (^4Viability) under conditions where non-malignant cells remain viable.

U2OS osteosarcoma cells [2] = test: LC3-II (autophagosome) accumulation; type: cell-based; details: Homo sapiens, within 4 to 8 hours, read-out: Accumulate LC3-II EC50
Experimental: as §1

U2OS osteosarcoma cells [3] = test: Suppression of cell proliferation; type: cell-based; details: Homo sapiens, 72 h, within 3 days, read-out: Inhibit Proliferation IC50
Experimental: as §1

U2OS osteosarcoma cells [4] = test: Reduction of cellular ATP levels (viability); type: cell-based; details: Homo sapiens, 96 h, within 4 days, read-out: Inhibit Viability IC50 (cellular ATP levels)
Experimental: as §1

Vero E6 cells [5] = type: cell-based, African Green monkey
SARS-CoV-2 [6] = system: SARS-CoV-2
in vitro = details: African green monkey
SARS-CoV-2 [7] = test: microbe, parasite or virus in culture; details: Severe acute respiratory syndrome coronavirus 2, Vero C1008, read-out: IC50 inhibition of SARS-CoV-2 infection
Vero E6 cells [8] = test: Vero E6 cell proliferation (attached cell count); type: cell-based, African Green monkey; details: Chlorocebus sabaeus, Vero C1008, 72 h; cultured for 3 days
Experimental: (§2) FIG. 4. […] Vero E6 cells were plated at low density and then cultured overnight before adding WX8 at the concentrations indicated and then cultured for 3 days. (A) Attached cells were collected by trypsinization and counted. The fraction of cells (%) as well as the change in the total number of cells (fold change) relative to cells cultured in the presence of the WX8 vehicle control are given. (B) Attached and unattached cells were combined and stained with annexin-V to identify cells undergoing apoptosis and propidium iodide (PI) to identify dead cells that were permeable to a nuclear DNA stain. The cells were then analyzed by fluorescence activated cell sorting. Quadrant (Q) Q3 contained the unstained (live) cells. Q1 contained cells stained only with annexin-V (early apoptosis). Q2 contained cells stained with both annexin-V and PI (apoptotic dead cells). Q4 contained cells stained only with PI (necrotic dead cells). (C) Data were normalized to the fraction of live cells. Error bars indicate ±SEM. (D) Cells were first permeabilized, stained with PI and then analyzed by fluorescence activated cell sorting in order to quantify the fraction of cells with <2N DNA content. (E) The fraction of cells with <2N DNA content ±SEM.
(§3) WX8 inhibited Vero E6 cell proliferation with an IC50 of 0.4 μM (FIG. 4A). However, 100-fold higher concentrations of WX8 were required to induce cell death. […]

Vero E6 cells [9] = test: Vero E6 cell death, annexin-V / propidium iodide FACS; type: cell-based, African Green monkey; details: Chlorocebus sabaeus, Vero C1008, 72 h; 3 days, annexin-V and propidium iodide staining; read-out: IC50 Vero E6 cell death (fraction of live cells)
Experimental: as §2, §3

Vero E6 cells [10] = test: Vero E6 loss of cellular DNA (PI FACS); type: cell-based, African Green monkey; details: Chlorocebus sabaeus, Vero C1008, 72 h, read-out: IP50 for loss of cellular DNA
Experimental: as §2, §3

[11] = system: 'autophagy-addicted' human melanoma cells; type: cell-based
PIKfyve = PIKfyve (Homo sapiens, UniProt Q9Y2I7); test: biochemical
Experimental: (§4) Each kinase was tagged with a unique DNA sequence that allowed the amount of protein bound to the solid support to be quantified by PCR. The mean equilibrium dissociation constant (Kd) for each compound was then determined for the top three hits (PIKFYVE, PIP4K2C and MTOR) from two independent titration curves. A dissociation constant (Kd) was calculated by measuring the amount of kinase captured on the solid support as a function of the test compound concentration (nM) on a log10 scale. Mean Kd values (±range) are given for each WX8-family member. The ratios of PIP4K2C/PIKfyve and mTOR/PIKfyve indicate the relative specificity of each compound for PIKfyve.

PIP4K2C = target: T1, PIP4K2C (Homo sapiens, UniProt Q8TBX8); details: ratio of Kd values
T1 sequence (Q8TBX8 1-421): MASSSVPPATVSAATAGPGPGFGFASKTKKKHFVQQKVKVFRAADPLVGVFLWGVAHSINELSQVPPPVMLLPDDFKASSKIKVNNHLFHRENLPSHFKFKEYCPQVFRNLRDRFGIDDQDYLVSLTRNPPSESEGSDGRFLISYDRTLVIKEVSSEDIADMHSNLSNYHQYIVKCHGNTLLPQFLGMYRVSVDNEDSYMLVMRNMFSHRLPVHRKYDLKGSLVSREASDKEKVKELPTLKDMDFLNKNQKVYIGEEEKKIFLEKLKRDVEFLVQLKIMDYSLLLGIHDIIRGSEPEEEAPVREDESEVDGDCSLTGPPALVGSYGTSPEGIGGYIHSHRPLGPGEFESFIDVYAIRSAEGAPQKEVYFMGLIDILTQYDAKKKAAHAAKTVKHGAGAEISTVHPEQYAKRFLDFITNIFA
Experimental: as §4

PIKfyve, sequence (Q9Y2I7 whole entry): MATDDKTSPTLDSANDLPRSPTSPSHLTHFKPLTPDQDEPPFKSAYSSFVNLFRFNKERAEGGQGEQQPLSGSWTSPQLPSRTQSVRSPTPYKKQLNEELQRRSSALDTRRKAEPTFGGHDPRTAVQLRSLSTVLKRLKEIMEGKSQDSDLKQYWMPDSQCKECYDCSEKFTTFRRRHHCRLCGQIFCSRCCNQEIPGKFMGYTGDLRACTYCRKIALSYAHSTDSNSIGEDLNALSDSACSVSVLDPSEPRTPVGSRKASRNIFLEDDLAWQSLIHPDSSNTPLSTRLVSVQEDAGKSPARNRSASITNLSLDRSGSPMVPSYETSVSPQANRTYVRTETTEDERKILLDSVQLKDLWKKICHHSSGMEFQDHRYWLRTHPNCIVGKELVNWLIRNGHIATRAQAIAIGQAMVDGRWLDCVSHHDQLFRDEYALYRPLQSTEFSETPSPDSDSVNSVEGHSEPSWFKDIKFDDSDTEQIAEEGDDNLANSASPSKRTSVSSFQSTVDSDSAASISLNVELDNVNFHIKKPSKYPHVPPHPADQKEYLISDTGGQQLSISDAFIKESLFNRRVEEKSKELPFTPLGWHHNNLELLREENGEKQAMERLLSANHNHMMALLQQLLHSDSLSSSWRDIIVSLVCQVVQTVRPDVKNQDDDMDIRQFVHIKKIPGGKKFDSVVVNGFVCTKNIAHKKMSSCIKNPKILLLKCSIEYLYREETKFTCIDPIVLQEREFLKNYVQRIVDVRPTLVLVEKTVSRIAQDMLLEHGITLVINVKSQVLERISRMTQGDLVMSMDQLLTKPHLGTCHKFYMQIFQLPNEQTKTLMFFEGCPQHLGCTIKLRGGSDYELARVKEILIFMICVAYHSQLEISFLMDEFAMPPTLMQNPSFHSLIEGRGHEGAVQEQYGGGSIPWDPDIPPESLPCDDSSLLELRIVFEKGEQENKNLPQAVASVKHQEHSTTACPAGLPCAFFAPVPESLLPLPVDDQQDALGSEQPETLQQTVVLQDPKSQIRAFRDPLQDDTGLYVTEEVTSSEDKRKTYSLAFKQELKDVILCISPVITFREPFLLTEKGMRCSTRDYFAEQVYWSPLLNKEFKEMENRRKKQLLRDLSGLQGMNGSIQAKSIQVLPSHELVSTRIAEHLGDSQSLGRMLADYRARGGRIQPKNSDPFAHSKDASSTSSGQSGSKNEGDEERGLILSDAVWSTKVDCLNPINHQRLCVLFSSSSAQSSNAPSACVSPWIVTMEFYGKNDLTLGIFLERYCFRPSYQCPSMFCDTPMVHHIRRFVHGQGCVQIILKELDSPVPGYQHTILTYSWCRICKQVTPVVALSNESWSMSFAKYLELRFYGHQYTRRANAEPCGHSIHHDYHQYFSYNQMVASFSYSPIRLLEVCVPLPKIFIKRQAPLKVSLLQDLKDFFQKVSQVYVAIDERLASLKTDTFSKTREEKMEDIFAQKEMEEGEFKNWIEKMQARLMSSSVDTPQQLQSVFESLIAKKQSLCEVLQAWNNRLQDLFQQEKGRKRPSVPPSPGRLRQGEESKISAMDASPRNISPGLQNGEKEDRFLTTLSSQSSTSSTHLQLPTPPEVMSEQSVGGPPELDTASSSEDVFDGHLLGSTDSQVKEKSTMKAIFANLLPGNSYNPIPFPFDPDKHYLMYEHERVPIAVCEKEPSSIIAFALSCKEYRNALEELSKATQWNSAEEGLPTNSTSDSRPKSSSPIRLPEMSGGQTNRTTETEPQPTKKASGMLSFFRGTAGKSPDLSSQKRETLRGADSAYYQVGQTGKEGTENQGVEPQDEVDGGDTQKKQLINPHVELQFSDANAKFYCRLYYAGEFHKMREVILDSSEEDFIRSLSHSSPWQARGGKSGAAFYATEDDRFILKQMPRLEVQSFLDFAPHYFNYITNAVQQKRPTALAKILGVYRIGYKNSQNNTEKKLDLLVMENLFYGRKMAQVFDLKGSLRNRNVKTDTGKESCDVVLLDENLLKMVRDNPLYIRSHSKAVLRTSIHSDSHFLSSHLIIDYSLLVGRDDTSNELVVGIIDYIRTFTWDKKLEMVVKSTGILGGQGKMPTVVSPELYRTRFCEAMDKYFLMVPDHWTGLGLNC

Structure (SMILES): CCc1ccc(Nc2nc(N3CCOCC3)nc(N3CCOCC3)n2)cc1 [XB6]
- Accumulate Vacuoles EC (U2OS osteosarcoma cells [1]): 2 µM
- pEC50 (U2OS osteosarcoma cells [2]): < 5.00
- pIC50 (U2OS osteosarcoma cells [3]): 5.13
- pIC50 (U2OS osteosarcoma cells [4]): 5.28

Structure (SMILES): Fc1ccc(Nc2nc(N3CCOCC3)nc(N3CCOCC3)n2)cc1Cl [XBA]
- Accumulate Vacuoles EC (U2OS osteosarcoma cells [1]): 4 µM
- pEC50 (U2OS osteosarcoma cells [2]): 5.12
- pIC50 (U2OS osteosarcoma cells [3]): 5.40
- pIC50 (U2OS osteosarcoma cells [4]): < 5.00

Structure (SMILES): C(=N\Nc1cc(N2CCOCC2)nc(N2CCOCC2)n1)/c1ccccc1 [WWL]
- Accumulate Vacuoles EC (U2OS osteosarcoma cells [1]): 0.2 µM
- pEC50 (U2OS osteosarcoma cells [2]): 5.19
- pIC50 (U2OS osteosarcoma cells [3]): 5.80
- pIC50 (U2OS osteosarcoma cells [4]): 5.59
- accumulation of cytoplasmic vacuoles (Vero E6 cells [5]): rapidly accumulated cytoplasmic vacuoles
- CC50/IC50 (SARS-CoV-2 [6]): 16
- CC50 (in vitro): 40.3 µM
- pIC50 (SARS-CoV-2 [7]): 5.61

Structure (SMILES): Cc1cccc(/C=N/Nc2cc(N3CCOCC3)nc(OCCc3ccccn3)n2)c1 [Apilimod, reference compound]
- accumulation of cytoplasmic vacuoles (Vero E6 cells [5]): rapidly accumulated cytoplasmic vacuoles
- CC50/IC50 (SARS-CoV-2 [6]): 22,027
- CC50 (in vitro): 33 µM
- pIC50 (SARS-CoV-2 [7]): 8.82

Structure (SMILES): Cc1cccc(/C=N/Nc2cc(N3CCOCC3)nc(N3CCOCC3)n2)c1 [NDF]
- Accumulate Vacuoles EC (U2OS osteosarcoma cells [1]): 0.1 µM
- pEC50 (U2OS osteosarcoma cells [2]): 5.82
- pIC50 (U2OS osteosarcoma cells [3]): 5.96
- pIC50 (U2OS osteosarcoma cells [4]): 6.38
- accumulation of cytoplasmic vacuoles (Vero E6 cells [5]): rapidly accumulated cytoplasmic vacuoles
- CC50/IC50 (SARS-CoV-2 [6]): 52
- CC50 (in vitro): 26.3 µM
- pIC50 (SARS-CoV-2 [7]): 6.30

Structure (SMILES): C1=Nc2ccccc2/C1=C/NNc1nc(Nc2ccccc2)nc(N2CCOCC2)n1 [WX8]
- Accumulate Vacuoles EC (U2OS osteosarcoma cells [1]): 0.01 µM
- pEC50 (U2OS osteosarcoma cells [2]): 6.52
- pIC50 (U2OS osteosarcoma cells [3]): 6.70
- pIC50 (U2OS osteosarcoma cells [4]): 6.46
- accumulation of cytoplasmic vacuoles (Vero E6 cells [5]): rapidly accumulated cytoplasmic vacuoles
- pIC50 (Vero E6 cells [8]): 6.40
- pIC50 (Vero E6 cells [9]): 4.15
- pIC50 (Vero E6 cells [10]): 4.22
- lethality relative to chloroquine [11]: 100 times
- CC50/IC50 (SARS-CoV-2 [6]): 245
- CC50 (in vitro): 42.3 µM
- pKd (PIKfyve): > 9.00
- pIC50 (SARS-CoV-2 [7]): 6.76
- affinity for PIKfyve relative to PIP4K2C (PIP4K2C/PIKfyve) (PIP4K2C): 366 fold
